Patent publication US20250059174A1, “Pharmaceutical Compounds and Compositions as C-Kit Kinase Inhibitors” (Enanta Pharmaceuticals, Inc., priority 2023, published 2025)
Each block holds one compound with its values, some of them ahead of it.

Legend:
[1] = biological target: Recombinant human c-KIT kinase (Homo sapiens (Human), UniProt P10721); test: c-KIT kinase chemiluminescence assay (ADP-Glo); assay type: biochemical; settings: ATP 50 μM
Procedure: The c-KIT Kinase Enzyme System (V4498) and ADP-Glo™ Kinase Assay kit (V6930) were purchased from Promega (Madison, WI). DMSO (D2650) was purchased from Sigma-Aldrich (Burlington, MA).
Kinase Reaction: The kinase assay was based on the recommended protocol by c-KIT Kinase Enzyme System from Promega. Recombinant human c-KIT kinase in 3 μL of assay buffer (40 mM Tris pH 7.5, 20 mM MgCl2, 0.1 mg/mL BSA and 50 μM DTT) was added to the test or high control wells and 3 μL of assay buffer was added to the low control wells. The microplate was centrifuged at 800 rotations per minute (rpm) for 60 s and incubated at room temperature (RT) for 30 min. Next, 2 μL of buffered ATP and polyEY substrate solution was added to all wells. The microplate was centrifuged at 800 rpm for 60 s and incubated at RT for 2 h.
ADP detection with ADP-Glo™ Kinase Assay: After the kinase reaction incubation, 5 μL of ADP-Glo™ reagent was added to all wells. The microplate was centrifuged at 800 rpm for 60 s and incubated at RT for 40 min. Ten microliter (10 μL) of Kinase Detection Reagent (Luciferin-Luciferase system) was then added to all wells. The microplate was centrifuged at 800 rpm for 60 s and incubated at RT for 60 min. Kinase activity was measured as increase in luminescence at RT in an Envision plate reader equipped with 560 nm filters and operating in endpoint mode. Data Analysis: Endpoint chemiluminescence from high and low control wells were used to calculate normalized c-KIT activity at various concentrations of test compounds. The normalized activities were fitted to inhibitor-versus-normalized response fit in GraphPad Prism 7 to determine half-maximal inhibitory concentration (IC50) and hill coefficient values (H).
Where I is the inhibitor concentration and H is the Hill coefficient.

[2] = tested on: M-07e cells; test: M-07e cellular assay (SCF-mediated cell proliferation); assay type: cell-based; settings: Homo sapiens, 72 hours, CellTiter Glo
Procedure: M-07e cells (Creative Bioarray, CSC-C0249) which endogenously express human c-KIT were used to evaluate the effect of compounds on stem cell factor (SCF)-mediated cell proliferation. M-07e cells were cultured in growth media (RPMI+10% FBS+1% penicillin/streptomycin+10 ng/mL GM-CSF) at 5E5-1.5E6 cells/mL, replenishing media every 3-4 days. 1.5E4 cells were seeded per well in 384 well tissue culture treated plates in 20 μL assay media (RPMI+[…]+1% penicillin/streptomycin) without growth factor stimulation and incubated at 37° C. in a CO2 humidity-controlled incubator. Twenty-four hours later, three-fold serially diluted test compounds in media containing SCF (at the previously determined EC90) were added to the plated M-07e cells and incubated for an additional 72 hours. Cell viability was determined by adding 25 μL CellTiter Glo (Promega) to the cells and the luminescence was measured using a Perkin Elmer Envision plate reader. The EC50 was determined using GraphPad Prism. Percent cell growth was determined after normalizing the curve to the mean RLU high control (no compound control wells) at 100% and the mean RLU low control (no SCF control wells) at 0%.

Sequence of Recombinant human c-KIT kinase (P10721 26-976): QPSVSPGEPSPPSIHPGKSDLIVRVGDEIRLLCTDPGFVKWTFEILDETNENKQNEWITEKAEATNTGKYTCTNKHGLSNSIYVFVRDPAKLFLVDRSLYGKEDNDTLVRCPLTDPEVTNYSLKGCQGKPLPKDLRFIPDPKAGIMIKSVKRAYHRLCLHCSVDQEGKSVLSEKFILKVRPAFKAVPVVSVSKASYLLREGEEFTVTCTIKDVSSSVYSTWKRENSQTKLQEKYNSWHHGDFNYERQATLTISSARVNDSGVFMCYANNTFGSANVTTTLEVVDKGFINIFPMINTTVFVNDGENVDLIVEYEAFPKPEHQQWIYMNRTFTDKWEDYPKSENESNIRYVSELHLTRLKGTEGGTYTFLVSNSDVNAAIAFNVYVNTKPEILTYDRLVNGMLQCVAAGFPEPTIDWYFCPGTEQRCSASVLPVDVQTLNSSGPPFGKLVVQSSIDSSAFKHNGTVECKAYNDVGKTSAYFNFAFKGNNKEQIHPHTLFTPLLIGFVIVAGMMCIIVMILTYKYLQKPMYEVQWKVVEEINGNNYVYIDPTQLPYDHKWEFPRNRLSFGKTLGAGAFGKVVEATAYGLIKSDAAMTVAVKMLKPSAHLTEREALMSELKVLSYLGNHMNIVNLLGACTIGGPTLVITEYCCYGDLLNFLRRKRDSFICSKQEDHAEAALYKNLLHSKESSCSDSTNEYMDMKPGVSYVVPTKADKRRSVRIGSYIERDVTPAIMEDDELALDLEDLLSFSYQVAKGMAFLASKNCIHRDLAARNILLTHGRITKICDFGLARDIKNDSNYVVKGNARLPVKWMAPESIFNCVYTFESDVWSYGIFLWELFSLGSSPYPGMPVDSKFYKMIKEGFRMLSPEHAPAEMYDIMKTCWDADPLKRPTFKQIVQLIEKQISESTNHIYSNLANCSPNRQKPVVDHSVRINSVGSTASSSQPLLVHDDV

Compound: Cc1ccc(-c2noc([C@H]3C[C@@H]3F)n2)cc1NC(=O)c1cnn2cc(F)ccc12 [Example 1a]
IC50 [1]: 100 to 1000 nM | EC50 [2]: 100 to 1000 nM

Compound: Cc1ccc(-c2noc([C@H]3C[C@@H]3F)n2)cc1NC(=O)c1cncn1C [Example 2]
IC50 [1]: > 1000 nM | EC50 [2]: > 1000 nM

Compound: Cc1ccc(-c2noc(C3C[C@@H]3F)n2)cc1NC(=O)c1cnn2ccc(-c3cnn(C(F)F)c3)cc12 (stereo partly shown) [Example 2a]
EC50 [2]: < 100 nM

Compound: Cc1ccc(-c2noc([C@H]3C[C@@H]3F)n2)cc1NC(=O)c1cccnc1 [Example 3]
IC50 [1]: > 1000 nM | EC50 [2]: > 1000 nM

Compound: Cc1ccc(-c2noc([C@H]3C[C@@H]3F)n2)cc1NC(=O)c1cnc(C)n1C [Example 4]
IC50 [1]: > 1000 nM | EC50 [2]: > 1000 nM

Compound: Cc1ccc(-c2noc([C@H]3C[C@@H]3F)n2)cc1NC(=O)c1cccnn1 [Example 5]
IC50 [1]: > 1000 nM | EC50 [2]: > 1000 nM

Compound: Cc1ccc(-c2noc([C@H]3C[C@@H]3F)n2)cc1NC(=O)c1cnn2ccccc12 [Example 6]
IC50 [1]: < 100 nM | EC50 [2]: < 100 nM

Compound: Cc1ccc(-c2noc([C@H]3C[C@@H]3F)n2)cc1NC(=O)c1cnn2cccnc12 [Example 7]
IC50 [1]: > 1000 nM | EC50 [2]: > 1000 nM

Compound: Cc1ccc(-c2noc([C@H]3C[C@@H]3F)n2)cc1NC(=O)c1cnc(-c2ccccc2)n1C [Example 14]
IC50 [1]: 100 to 1000 nM | EC50 [2]: > 1000 nM

Compound: Cc1ccc(-c2noc([C@H]3C[C@@H]3F)n2)cc1NC(=O)c1cnn2ccncc12 [Example 15]
IC50 [1]: 100 to 1000 nM | EC50 [2]: 100 to 1000 nM

Compound: Cc1ccc(-c2noc([C@H]3C[C@@H]3F)n2)cc1NC(=O)c1cnn(-c2ccccc2)c1 [Example 23]
IC50 [1]: 100 to 1000 nM | EC50 [2]: 100 to 1000 nM

Compound: Cc1ccc(-c2noc([C@H]3C[C@@H]3F)n2)cc1NC(=O)c1ccnc2ccccc12 [Example 27]
IC50 [1]: > 1000 nM | EC50 [2]: > 1000 nM

Compound: Cc1ccc(-c2noc([C@H]3C[C@@H]3F)n2)cc1NC(=O)c1cnc2sccn12 [Example 30]
IC50 [1]: < 100 nM | EC50 [2]: 100 to 1000 nM

Compound: Cc1ncc(C(=O)Nc2cc(-c3noc([C@H]4C[C@@H]4F)n3)ccc2C)s1 [Example 34]
IC50 [1]: > 1000 nM | EC50 [2]: > 1000 nM

Compound: Cc1ccc(-c2noc([C@H]3C[C@@H]3F)n2)cc1NC(=O)c1cnn(C)c1 [Example 35]
IC50 [1]: > 1000 nM | EC50 [2]: > 1000 nM

Compound: Cc1ccc(-c2noc([C@H]3C[C@@H]3F)n2)cc1NC(=O)c1cnn2c1CCC2 [Example 36]
IC50 [1]: > 1000 nM | EC50 [2]: > 1000 nM

Compound: Cc1ccc(-c2noc([C@H]3C[C@@H]3F)n2)cc1NC(=O)c1cnc2n1CCC2 [Example 37]
IC50 [1]: > 1000 nM | EC50 [2]: > 1000 nM

Compound: CC(=O)Nc1ncc(C(=O)Nc2cc(-c3noc([C@H]4C[C@@H]4F)n3)ccc2C)s1 [Example 38]
IC50 [1]: 100 to 1000 nM | EC50 [2]: 100 to 1000 nM

Compound: Cc1ccc(-c2noc([C@H]3C[C@@H]3F)n2)cc1NC(=O)c1coc2ccccc12 [Example 39]
IC50 [1]: > 1000 nM | EC50 [2]: > 1000 nM

Compound: Cc1ccc(-c2noc([C@H]3C[C@@H]3F)n2)cc1NC(=O)c1n[nH]c2ncccc12 [Example 40]
IC50 [1]: > 1000 nM | EC50 [2]: > 1000 nM

Compound: Cc1ccc(-c2noc([C@H]3C[C@@H]3F)n2)cc1NC(=O)c1cnn2cc(Br)ccc12 [Example 41, 6-bromo-N-(5-(5-((1R,2S)-2-fluorocyclopropyl)-1,2,4-oxadiazol-3-yl)-2-methylphenyl)pyrazolo [1,5-a]pyridine-3-carboxamide]
IC50 [1]: < 100 nM | EC50 [2]: 100 to 1000 nM

Compound: Cc1ccc(-c2noc([C@H]3C[C@@H]3F)n2)cc1NC(=O)c1cnc2n1Cc1ccccc1-2 [Example 99]
EC50 [2]: < 100 nM

Compound: Cc1ncc(-c2ccn3ncc(C(=O)Nc4cc(-c5noc([C@H]6C[C@@H]6F)n5)ccc4C)c3c2)c(C)n1 [Example 168]
EC50 [2]: < 100 nM

Compound: Cc1ccc(-c2noc(C3C[C@@H]3F)n2)cc1NC(=O)c1cnn2ccc(N3C[C@H](CS(C)(=O)=O)[C@@H]3C)cc12 (stereo partly shown) [Example 172]
EC50 [2]: < 100 nM

Compound: Cc1ccc(-c2noc([C@H]3C[C@@H]3F)n2)cc1NC(=O)c1cnc(-c2cnc(N)nc2)o1 [Example 308-64]
EC50 [2]: > 1000 nM

Compound: Cc1ccc(-c2nc([C@H]3C[C@@H]3F)cs2)cc1NC(=O)c1cnn2ccc(N3CC4(COC4)C3)cc12 [Example 309]
EC50 [2]: < 100 nM

Compound: Cc1ncc(-c2ncc(OC(F)(F)F)cn2)cc1NC(=O)c1cnn2ccc(-c3c(C)nc(N)nc3C)cc12 [Example 364]
EC50 [2]: < 100 nM

Compound: Cc1nc(N)nc(C)c1-c1ccn2ncc(C(=O)Nc3cc(-c4noc([C@H]5C[C@@H](OC(F)(F)F)C5)n4)sc3C)c2c1 [Example 368]
EC50 [2]: 100 to 1000 nM

Compound: Cc1nc(N)nc(C)c1-c1ccn2ncc(C(=O)Nc3cc(-c4noc(C5CN(C(=O)OC(C)(C)C)C5)n4)sc3C)c2c1 [Example 369]
EC50 [2]: > 1000 nM

Compound: Cc1nc(N)nc(C)c1-c1ccn2ncc(C(=O)Nc3cc(-c4noc([C@H]5C[C@@H]5F)n4)sc3C)c2c1 [Example 370]
EC50 [2]: > 1000 nM

Compound: Cc1nc(N)nc(C)c1-c1ccn2ncc(C(=O)Nc3cc(-c4noc(C5CN(C(=O)[C@H]6C[C@@H]6F)C5)n4)sc3C)c2c1 [Example 371]
EC50 [2]: > 1000 nM

Compound: Cc1nn(-c2ccc(C3CC3)cc2)cc1NC(=O)c1cnn2ccc(N3CC4(COC4)C3)cc12 [Example 372]
EC50 [2]: > 1000 nM

More lines, main results first:

IC50 [1]: < 100 nM
Compound: Cc1ccc(-c2noc([C@H]3C[C@@H]3F)n2)cc1NC(=O)c1cnn2ccc(Br)cc12 [Example 42, 5-bromo-N-(5-(5-((1R,2S)-2-fluorocyclopropyl)-1,2,4-oxadiazol-3-yl)-2-methylphenyl)pyrazolo[1,5-a]pyridine-3-carboxamide]
EC50 [2]: 100 to 1000 nM

IC50 [1]: < 100 nM
Compound: Cc1ccc(-c2noc([C@H]3C[C@@H]3F)n2)cc1NC(=O)c1cnn2ccc(N3CC4(COC4)C3)cc12 [Example 43]
EC50 [2]: < 100 nM

IC50 [1]: < 100 nM
Compound: Cc1ccc(-c2noc([C@H]3C[C@@H]3F)n2)cc1NC(=O)c1cnn2ccc(N3CCS(=O)(=O)CC3)cc12 [Example 44]
EC50 [2]: < 100 nM

IC50 [1]: 100 to 1000 nM
Compound: COc1ccc(-n2cc(C(=O)Nc3cc(-c4noc([C@H]5C[C@@H]5F)n4)ccc3C)cn2)cc1 [Example 52]
EC50 [2]: 100 to 1000 nM

IC50 [1]: < 100 nM
Compound: Cc1ccc(-c2noc([C@H]3C[C@@H]3F)n2)cc1NC(=O)c1cnn2cc(N3CC4(COC4)C3)ccc12 [Example 54]
EC50 [2]: < 100 nM

IC50 [1]: < 100 nM
Compound: Cc1ccc(-c2noc([C@H]3C[C@@H]3F)n2)cc1NC(=O)c1cnn2ccc(C3CC3)cc12 [Example 55]
EC50 [2]: 100 to 1000 nM

IC50 [1]: < 100 nM
Compound: Cc1ccc(-c2noc([C@H]3C[C@@H]3F)n2)cc1NC(=O)c1cnn2cc(C3CC3)ccc12 [Example 56]
EC50 [2]: 100 to 1000 nM

IC50 [1]: < 100 nM
Compound: Cc1ccc(-c2noc([C@H]3C[C@@H]3F)n2)cc1NC(=O)c1cnn2cc(Cl)ccc12 [Example 57]
EC50 [2]: 100 to 1000 nM

IC50 [1]: < 100 nM
Compound: COc1ccc2c(C(=O)Nc3cc(-c4noc([C@H]5C[C@@H]5F)n4)ccc3C)cnn2c1 [Example 58]
EC50 [2]: < 100 nM

IC50 [1]: < 100 nM
Compound: Cc1ccc(-c2noc([C@H]3C[C@@H]3F)n2)cc1NC(=O)c1cnn2ccc(Cl)cc12 [Example 59]
EC50 [2]: 100 to 1000 nM

IC50 [1]: < 100 nM
Compound: COc1ccn2ncc(C(=O)Nc3cc(-c4noc([C@H]5C[C@@H]5F)n4)ccc3C)c2c1 [Example 60]
EC50 [2]: < 100 nM

IC50 [1]: < 100 nM
Compound: Cc1ccc2c(C(=O)Nc3cc(-c4noc([C@H]5C[C@@H]5F)n4)ccc3C)cnn2c1 [Example 61]
EC50 [2]: < 100 nM

IC50 [1]: 100 to 1000 nM
Compound: Cc1ccc(-c2noc([C@H]3C[C@@H]3F)n2)cc1NC(=O)c1cnn2cc(F)c(Br)cc12 [Example 62]
EC50 [2]: > 1000 nM

IC50 [1]: < 100 nM
Compound: C/C=C/c1ccn2ncc(C(=O)Nc3cc(-c4noc([C@H]5C[C@@H]5F)n4)ccc3C)c2c1 [Example 69]
EC50 [2]: < 100 nM

IC50 [1]: < 100 nM
Compound: Cc1ccc(-c2noc([C@H]3C[C@@H]3F)n2)cc1NC(=O)c1cnn2ccc(CN3CCOCC3)cc12 [Example 70]
EC50 [2]: 100 to 1000 nM

IC50 [1]: < 100 nM
Compound: Cc1ccc(-c2noc([C@H]3C[C@@H]3F)n2)cc1NC(=O)c1cnn2ccc(C=O)cc12 [Example 71]
EC50 [2]: 100 to 1000 nM

IC50 [1]: < 100 nM
Compound: Cc1ccc(-c2noc([C@H]3C[C@@H]3F)n2)cc1NC(=O)c1cnn2ccc(CO)cc12 [Example 72]
EC50 [2]: 100 to 1000 nM

IC50 [1]: > 1000 nM
Compound: Cc1ccc(-c2noc([C@H]3C[C@@H]3F)n2)cc1NC(=O)c1cnn2cc(Cl)c(Br)cc12 [Example 73]
EC50 [2]: > 1000 nM
